# Publication PMC11189555, “Aryl amino acetamides prevent Plasmodium falciparum ring development via targeting the lipid-transfer protein PfSTART1” (Nature Communications, 2024)
# Like-named read-outs stand apart in the source and are kept apart here.
# Tested on: PopD E3 M-833 resistant clone (PfSTART1 N309K)
# Experiment: Growth inhibition assay (72 h, LDH activity)
# Type: cell-based, Plasmodium falciparum
# Procedure, shortened: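 Synchronised ring-stage 3D7-derived clones (0.3-0.6% parasitemia, 2% haematocrit) grown 72 h in compound serial dilutions, some with 0, 0.25 or 2.5 mM glucosamine. Growth read as LDH activity after freeze-thaw (Malstat/NBT, A650), normalised to DMSO and uninfected RBC; EC50 from variable-slope log(inhibitor) fit.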
structure (smiles),measurement,setting,value
Cc1cc(Cl)c(S(=O)(=O)N2CCCC2)cc1OCC(=O)NC1CCCCC1 [M-833],Normalised to DMSO,"M-833 0.0390625 uM, Pop D-E3 replicate 1",112.377
same,Normalised to DMSO,"M-833 0.0390625 uM, Pop D-E3 replicate 3",111.25
same,Normalised to DMSO,"M-833 0.078125 uM, Pop D-E3 replicate 1",99.4191
same,Normalised to DMSO,"M-833 0.078125 uM, Pop D-E3 replicate 3",110.5
same,Normalised to DMSO,"M-833 0.15625 uM, Pop D-E3 replicate 1",107.328
same,Normalised to DMSO,"M-833 0.15625 uM, Pop D-E3 replicate 3",114.438
same,Normalised to DMSO,"M-833 0.3125 uM, Pop D-E3 replicate 1",106.122
same,Normalised to DMSO,"M-833 0.3125 uM, Pop D-E3 replicate 3",114.625
same,Normalised to DMSO,"M-833 0.625 uM, Pop D-E3 replicate 1",101.028
same,Normalised to DMSO,"M-833 0.625 uM, Pop D-E3 replicate 3",107.875
same,Normalised to DMSO,"M-833 1.25 uM, Pop D-E3 replicate 1",86.6399
same,Normalised to DMSO,"M-833 1.25 uM, Pop D-E3 replicate 3",110.688
same,Normalised to DMSO,"M-833 2.5 uM, Pop D-E3 replicate 1",72.8552
same,Normalised to DMSO,"M-833 2.5 uM, Pop D-E3 replicate 3",90.4375
same,Normalised to DMSO,"M-833 5 uM, Pop D-E3 replicate 1",44.37
same,Normalised to DMSO,"M-833 5 uM, Pop D-E3 replicate 3",73.375
same,Normalised to DMSO,"M-833 10 uM, Pop D-E3 replicate 1",23.9276
same,Normalised to DMSO,"M-833 10 uM, Pop D-E3 replicate 3",62.6875
same,inhibition at 0.0390625 µM,"Plasmodium falciparum, M-833 0.0390625 uM, Pop D-E3 replicate 1, read-out: % Inhibition",-12.4%
same,inhibition at 0.0390625 µM,"Plasmodium falciparum, M-833 0.0390625 uM, Pop D-E3 replicate 3, read-out: % Inhibition",-11.2%
same,inhibition at 0.078125 µM,"Plasmodium falciparum, M-833 0.078125 uM, Pop D-E3 replicate 1, read-out: % Inhibition",0.581%
same,inhibition at 0.078125 µM,"Plasmodium falciparum, M-833 0.078125 uM, Pop D-E3 replicate 3, read-out: % Inhibition",-10.5%
same,inhibition at 0.15625 µM,"Plasmodium falciparum, M-833 0.15625 uM, Pop D-E3 replicate 1, read-out: % Inhibition",-7.33%
same,inhibition at 0.15625 µM,"Plasmodium falciparum, M-833 0.15625 uM, Pop D-E3 replicate 3, read-out: % Inhibition",-14.4%
same,inhibition at 0.3125 µM,"Plasmodium falciparum, M-833 0.3125 uM, Pop D-E3 replicate 1, read-out: % Inhibition",-6.12%
same,inhibition at 0.3125 µM,"Plasmodium falciparum, M-833 0.3125 uM, Pop D-E3 replicate 3, read-out: % Inhibition",-14.6%
same,inhibition at 0.625 µM,"Plasmodium falciparum, M-833 0.625 uM, Pop D-E3 replicate 1, read-out: % Inhibition",-1.03%
same,inhibition at 0.625 µM,"Plasmodium falciparum, M-833 0.625 uM, Pop D-E3 replicate 3, read-out: % Inhibition",-7.88%
same,inhibition at 1.25 µM,"Plasmodium falciparum, M-833 1.25 uM, Pop D-E3 replicate 1, read-out: % Inhibition",13.4%
same,inhibition at 1.25 µM,"Plasmodium falciparum, M-833 1.25 uM, Pop D-E3 replicate 3, read-out: % Inhibition",-10.7%
same,inhibition at 2.5 µM,"Plasmodium falciparum, M-833 2.5 uM, Pop D-E3 replicate 1, read-out: % Inhibition",27.1%
same,inhibition at 2.5 µM,"Plasmodium falciparum, M-833 2.5 uM, Pop D-E3 replicate 3, read-out: % Inhibition",9.56%
same,inhibition at 5 µM,"Plasmodium falciparum, M-833 5 uM, Pop D-E3 replicate 1, read-out: % Inhibition",55.6%
same,inhibition at 5 µM,"Plasmodium falciparum, M-833 5 uM, Pop D-E3 replicate 3, read-out: % Inhibition",26.6%
same,inhibition at 10 µM,"Plasmodium falciparum, M-833 10 uM, Pop D-E3 replicate 1, read-out: % Inhibition",76.1%
same,inhibition at 10 µM,"Plasmodium falciparum, M-833 10 uM, Pop D-E3 replicate 3, read-out: % Inhibition",37.3%
same,inhibition at 0.0390625 µM,"Plasmodium falciparum, Pop D-E3 replicate 1, M-833 0.0390625 uM",2.67%
same,inhibition at 0.078125 µM,"Plasmodium falciparum, Pop D-E3 replicate 1, M-833 0.078125 uM",-1.86%
same,inhibition at 0.15625 µM,"Plasmodium falciparum, Pop D-E3 replicate 1, M-833 0.15625 uM",1.05%
same,inhibition at 0.3125 µM,"Plasmodium falciparum, Pop D-E3 replicate 1, M-833 0.3125 uM",2.17%
same,inhibition at 0.625 µM,"Plasmodium falciparum, Pop D-E3 replicate 1, M-833 0.625 uM",5.06%
same,inhibition at 1.25 µM,"Plasmodium falciparum, Pop D-E3 replicate 1, M-833 1.25 uM",17.9%
same,inhibition at 2.5 µM,"Plasmodium falciparum, Pop D-E3 replicate 1, M-833 2.5 uM",29.5%
same,inhibition at 5 µM,"Plasmodium falciparum, Pop D-E3 replicate 1, M-833 5 uM",46.7%
same,inhibition at 10 µM,"Plasmodium falciparum, Pop D-E3 replicate 1, M-833 10 uM",65.4%
same,EC50,"Plasmodium falciparum, read-out: EC50 (95% confidence interval)",3.53 µM
same,Normalised to DMSO,"Pop D-E3 replicate 1, M-833 0.0390625 uM",97.3266
same,Normalised to DMSO,"Pop D-E3 replicate 1, M-833 0.078125 uM",101.86
same,Normalised to DMSO,"Pop D-E3 replicate 1, M-833 0.15625 uM",98.9539
same,Normalised to DMSO,"Pop D-E3 replicate 1, M-833 0.3125 uM",97.8303
same,Normalised to DMSO,"Pop D-E3 replicate 1, M-833 0.625 uM",94.9438
same,Normalised to DMSO,"Pop D-E3 replicate 1, M-833 1.25 uM",82.1
same,Normalised to DMSO,"Pop D-E3 replicate 1, M-833 2.5 uM",70.5347
same,Normalised to DMSO,"Pop D-E3 replicate 1, M-833 5 uM",53.3127
same,Normalised to DMSO,"Pop D-E3 replicate 1, M-833 10 uM",34.6377
